Experimental findings from ChEMBL document CHEMBL4265997, “Decision Making in Medicinal Chemistry: The Power of Our Intuition” (ACS Med Chem Lett, 2018) are described below.

Molecules are shown by their SMILES.

The assay deals with Estrogen receptor beta (Homo sapiens, UniProt Q92731). The assay is described as follows: Antagonist activity at ER-beta (unknown origin).
Sequence of Estrogen receptor beta (Q92731 whole entry): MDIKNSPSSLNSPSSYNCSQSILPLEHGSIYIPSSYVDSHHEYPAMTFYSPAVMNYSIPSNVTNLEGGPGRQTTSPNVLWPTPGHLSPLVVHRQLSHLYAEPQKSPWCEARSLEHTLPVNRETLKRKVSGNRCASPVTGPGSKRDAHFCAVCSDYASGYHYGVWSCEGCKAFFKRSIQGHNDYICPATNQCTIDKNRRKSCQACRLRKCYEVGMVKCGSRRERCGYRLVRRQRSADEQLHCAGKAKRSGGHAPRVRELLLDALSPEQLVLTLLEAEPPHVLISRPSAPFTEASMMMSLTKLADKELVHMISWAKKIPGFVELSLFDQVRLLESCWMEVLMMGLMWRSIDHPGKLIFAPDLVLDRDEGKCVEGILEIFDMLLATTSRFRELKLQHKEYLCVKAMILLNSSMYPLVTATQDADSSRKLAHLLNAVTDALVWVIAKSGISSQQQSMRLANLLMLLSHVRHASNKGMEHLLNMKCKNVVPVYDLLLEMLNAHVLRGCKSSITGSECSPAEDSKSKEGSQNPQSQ

For the molecule `CNC(=O)c1ccc2nc(C)c3nnc(-c4ccccc4Cl)n3c2c1`, the half-maximal inhibitory concentration (IC50) is 2.51 nM.
For the molecule `CNC(=O)c1ccc2nc(C)c3nnc(-c4cc(OCC(C)C)ccc4Cl)n3c2c1`, 0.631 nM corresponded to half-maximal inhibition (IC50).
